Reference: US20100144819A1, “Synergistic Methods for Control of Pests” (FMC A[…]. LTD., priority 2008, published 2010)

Key:
[1] = test system: black house spider (Badumna insignis); test: Black house spider mortality on treated pine plywood; type: in vivo; conditions: suspension concentrate diluted in water, 24 h
Text: (§1) The presence of a synergistic effect between the two active ingredients is established with the aid of the Colby equation (see Colby, S. R., “Calculating Synergistic and Antagonistic Responses of Herbicide Combinations”, Weeds 1967, 15, pg 20-22): E=X+Y−(XY/100).
(§2) Using the method of Colby, the presence of asynergistic interaction between two active ingredients is established by first calculating the expected activity, ‘E’, of the mixture based on activities of the two components applied alone. If ‘E’ is lower than the observed activity, synergy is present. In the equation above, ‘X’ is the percentage control observed when bifenthrin applied alone at rate ‘x’. The ‘Y’ term is percentage control observed when fipronil applied alone at rate ‘y’. The equation calculates ‘E’, the expected activity of the mixture of ‘X’ at rate ‘x’ with ‘Y’ at rate ‘y’ if their effects are strictly additive and no interaction has occurred.
The compositions of the present invention were tested for black house spider (Badumna insignis) activity in the following manner:
Formulations of the test compounds were made as follows: • 1).
The testing was conducted on pine plywood surfaces that had dimensions of 20 cm×20 cm. The above formulations were diluted in water to achieve the desired concentration rate in grams of active ingredient per liter prior to application to the pine plywood. Each treatment was applied using an airbrush sprayer and compressed air as the propellant. The equipment was calibrated prior to use and the treatments were applied to the pine plywood surfaces at a rate of 1 L/10 m^2 (4 mL of final test solution per 20 cm×20 cm pine plywood surface)'. For example, in order to obtain a application rate of […] of active ingredient per 10 m^2, 1.25 mL of the fipronil formulation 1) which contained 100 gram per liter suspension concentrate formulation of fipronil, was diluted in 1 liter of water to make a final test solution. Four mL of the final test solution was sprayed onto the pine plywood surface. The treated pine plywood was allowed to air dry at ambient temperature by storing horizontally away from direct sunlight. Three black house spiders, medium to large in size collected from the field 1 to 2 days prior to testing, were placed separately under untreated portion cups (7 cm diameter by 7 cm deep) on the treated pine plywood surfaces. The untreated portion cups provided an opportunity for the spiders to seek an untreated area. The spiders were assessed after 24 hours exposure by counting the number of alive and the number of knocked down/dead spiders. There were three replications of each treatment.

[2] = test system: American cockroach (Periplaneta americana); test: American cockroach mortality on treated filter paper; type: in vivo; conditions: 24 h
Text: as §1, §2
The compositions of the present invention were tested for American cockroach (Periplaneta americana) activity in the following manner:
Test solutions were made by dissolving technical grade bifenthrin and fipronil in acetone to provide appropriate rates of application of bifenthrin and fipronil alone, as well as combinations of bifenthrin and fipronil. The active ingredient concentrations tested were from 10 part per million (0.01 mg of active ingredient/mL or 0.01 g/L) to 1000 parts per million (1.0 mg of active ingredient/mL or 1.0 g/L), four replicates per rate. In a fume cabinet, one milliliter of a test solution was applied to a 9 cm Whatman® 2 qualitative filter paper using a calibrated pipette. The application started at the center of the filter paper with individual drops being applied in an outward circular motion so that the entire filter paper was uniformly treated. Acetone only (one mL) was applied in the same manner to provide an untreated control (UTC). The treated filter papers were allowed to dry for two hours. The dried, treated or untreated filter paper was placed into a plastic cup having a base diameter of 90 mm, in which the upper portion of the walls of the plastic cup were coated with a fluoropolymer resin (PFTE-30) insect barrier (Fluoron® available from BioQuip Products Inc.) to prevent the insects from climbing out of the container. Ten late instar, healthy and active American cockroaches (Periplaneta americana) were momentarily immobilized using carbon dioxide and then placed onto the filter paper. The top of the plastic containers were covered with gauze to contain the cockroaches. The plastic containers were maintained at a temperature of 25° C. to 30° C. at ambient relative humidity out of direct sunlight. American cockroach mortality was assessed after 24 hours by counting the number of alive and the number of knocked down/dead cockroaches.
In order to compare the pesticidal effectiveness of the individual and combination treatments the LC 50 and LC 90 values (lethal concentration in ppm that would effectively knock down/kill 50% or 90% of the test pests) were calculated. In calculating the LC values for the various mixtures of bifenthrin and fipronil, probit analysis was conducted on the bifenthrin in concentration of the mixture. […] The values calculated from the data of Table 2 are in Table 2A below.

[3] = probit analysis of Table 2 data, mixtures as bifenthrin:fipronil

SMILES: N#Cc1nn(-c2c(Cl)cc(C(F)(F)F)cc2Cl)c(N)c1[S+]([O-])C(F)(F)F [Fipronil, (5-amino-[2,6-dichloro-4(trifluoromethyl)phenyl]-4-[(1R,S)-(trifluoromethyl)sulfinyl]-1H-pyrazole-3-carbonitrile]
- Observed % Control ([1]; 0.125 g ai/L at 1 L/10 m^2): 0.0%
- Observed % Control ([1]; 0.25 g ai/L at 1 L/10 m^2): 0.0%
- Observed % Control ([1]; 0.5 g ai/L at 1 L/10 m^2): 0.0%
- % Observed Control ([2]; 10 ppm (0.01 mg/mL)): 0%
- Mortality Rep 1 dead/alive ([2]; 10 ppm (0.01 mg/mL)): 0/10
- Mortality Rep 2 dead/alive ([2]; 10 ppm (0.01 mg/mL)): 0/10
- Mortality Rep 3 dead/alive ([2]; 10 ppm (0.01 mg/mL)): 0/10
- Mortality Rep 4 dead/alive ([2]; 10 ppm (0.01 mg/mL)): 0/10
- % Observed Control ([2]; 20 ppm (0.02 mg/mL)): 0%
- Mortality Rep 1 dead/alive ([2]; 20 ppm (0.02 mg/mL)): 0/10
- Mortality Rep 2 dead/alive ([2]; 20 ppm (0.02 mg/mL)): 0/10
- Mortality Rep 3 dead/alive ([2]; 20 ppm (0.02 mg/mL)): 0/10
- Mortality Rep 4 dead/alive ([2]; 20 ppm (0.02 mg/mL)): 0/10
- % Observed Control ([2]; 25 ppm (0.025 mg/mL)): 0%
- Mortality Rep 1 dead/alive ([2]; 25 ppm (0.025 mg/mL)): 0/10
- Mortality Rep 2 dead/alive ([2]; 25 ppm (0.025 mg/mL)): 0/10
- Mortality Rep 3 dead/alive ([2]; 25 ppm (0.025 mg/mL)): 0/10
- Mortality Rep 4 dead/alive ([2]; 25 ppm (0.025 mg/mL)): 0/10
- % Observed Control ([2]; 50 ppm (0.05 mg/mL)): 0%
- Mortality Rep 1 dead/alive ([2]; 50 ppm (0.05 mg/mL)): 0/10
- Mortality Rep 2 dead/alive ([2]; 50 ppm (0.05 mg/mL)): 0/10
- Mortality Rep 3 dead/alive ([2]; 50 ppm (0.05 mg/mL)): 0/10
- Mortality Rep 4 dead/alive ([2]; 50 ppm (0.05 mg/mL)): 0/10
- % Observed Control ([2]; 100 ppm (0.1 mg/mL)): 2.5%
- Mortality Rep 1 dead/alive ([2]; 100 ppm (0.1 mg/mL)): 0/10
- Mortality Rep 2 dead/alive ([2]; 100 ppm (0.1 mg/mL)): 0/10
- Mortality Rep 3 dead/alive ([2]; 100 ppm (0.1 mg/mL)): 0/10
- Mortality Rep 4 dead/alive ([2]; 100 ppm (0.1 mg/mL)): 1/9
- % Observed Control ([2]; 125 ppm (0.125 mg/mL)): 2.5%
- Mortality Rep 1 dead/alive ([2]; 125 ppm (0.125 mg/mL)): 0/10
- Mortality Rep 2 dead/alive ([2]; 125 ppm (0.125 mg/mL)): 0/10
- Mortality Rep 3 dead/alive ([2]; 125 ppm (0.125 mg/mL)): 0/10
- Mortality Rep 4 dead/alive ([2]; 125 ppm (0.125 mg/mL)): 1/9
- % Observed Control ([2]; 200 ppm (0.2 mg/mL)): 2.5%
- Mortality Rep 1 dead/alive ([2]; 200 ppm (0.2 mg/mL)): 0/10
- Mortality Rep 2 dead/alive ([2]; 200 ppm (0.2 mg/mL)): 0/10
- Mortality Rep 3 dead/alive ([2]; 200 ppm (0.2 mg/mL)): 1/9
- Mortality Rep 4 dead/alive ([2]; 200 ppm (0.2 mg/mL)): 0/10
- % Observed Control ([2]; 250 ppm (0.25 mg/mL)): 45%
- Mortality Rep 1 dead/alive ([2]; 250 ppm (0.25 mg/mL)): 0/10
- Mortality Rep 2 dead/alive ([2]; 250 ppm (0.25 mg/mL)): 8/2
- Mortality Rep 3 dead/alive ([2]; 250 ppm (0.25 mg/mL)): 7/3
- Mortality Rep 4 dead/alive ([2]; 250 ppm (0.25 mg/mL)): 3/7
- % Observed Control ([2]; 500 ppm (0.5 mg/mL)): 45%
- Mortality Rep 1 dead/alive ([2]; 500 ppm (0.5 mg/mL)): 1/9
- Mortality Rep 2 dead/alive ([2]; 500 ppm (0.5 mg/mL)): 8/2
- Mortality Rep 3 dead/alive ([2]; 500 ppm (0.5 mg/mL)): 5/5
- Mortality Rep 4 dead/alive ([2]; 500 ppm (0.5 mg/mL)): 4/6
- LC 50 [2, 3]: 1013 ppm
- LC 90 [2, 3]: 1742 ppm
